# Where no end group is shown, it is not given here.
# Legend:
# [1] = system: Staphylococcus spp. (for S. aureus); design: method as in earlier work; conditions: EUCAST/2021/01/01, ref 22 (SI), cited from earlier work; for MIC breakpoints R>: resistant breakpoint; for MIC breakpoints S≤: susceptible breakpoint
# [2] = system: Enterococcus spp. (for E. faecalis); design: method as in earlier work; conditions: EUCAST/2021/01/01, ref 22 (SI), cited from earlier work; for MIC breakpoints R>: resistant breakpoint; for MIC breakpoints S≤: susceptible breakpoint
# [3] = system: Enterobacterales (for E. coli); design: method as in earlier work; conditions: EUCAST/2021/01/01, ref 22 (SI), cited from earlier work; for MIC breakpoints R>: resistant breakpoint; for MIC breakpoints S≤: susceptible breakpoint
# [4] = format: binding
# Method: (§1) All peptides ([…]-COOH, […]-COOH, […]
# (§2) were purchased from KareBay Biochem (USA) (certified purity: 98 %) and were used as received.
# (§3) The carbonate-free stock solutions of 0.1 M NaOH were purchased from Sigma-Aldrich and then potentiometrically standardized with the primary standard potassium hydrogen phthalate (99.9 % purity). […]
# (§4) Stability constants for proton, Zn(II) and Cu(II) complexes were calculated from pH -metric titration curves carried out over the pH range 2-11 at T = 298 K in water solution of 4 mM HClO 4 and ionic strength 40 mM (SDS), using a total volume of 3 ml. The potentiometric titrations were performed using a Metrohm Titrando 905 titrator and a Mettler Toledo InLab Micro comb ined pH electrode. The thermostabilized glass -cell was equipped with a magnetic stirring system, a microburette delivery tube and an inlet –outlet tube for argon.
# (§5) Solutions were titrated with 0.1 M carbonate-free NaOH. The electrodes were calibrated daily f or hydrogen ion concentration by titrating HClO 4 with NaOH under the same experimental conditions as above. The purities and the exact concentrations of the ligand solutions were determined by the Gran method. 1 The ligand concentration was 0.5 mM. The Zn(II) and Cu(II) to ligand ratio was 1 : 1.
# (§6) The standard potential and the slope of the electrode couple were computed by means of Glee 2 program. The HYPERQUAD 20063 program was used for the stability constant calculations. The standard deviations were computed by HYPERQUAD 2006 and refer to random errors only. The constants for the hydrolytic Zn(II ) species
# [5] = format: physicochemical
# Method: as §1, §2, §3, §4, §5, §6
# [6] = potentiometry, 298 K, I = 40 mM SDS, Cu(II):L 1:1, 0.5 mM, SD in parentheses
# [7] = potentiometry, 298 K, I = 40 mM SDS, Zn(II):L 1:1, 0.5 mM, SD in parentheses
# [8] = potentiometry pH 2-11, 298 K, 4 mM HClO4, I = 40 mM SDS, ligand 0.5 mM, SD in parentheses
compound,measurement,setting,value
NCC[C@H](O)C(=O)N[C@@H]1C[C@H](N)[C@@H](O[C@H]2O[C@H](CN)[C@@H](O)[C@H](O)[C@H]2O)[C@H](O)[C@H]1O[C@H]1O[C@H](CO)[C@@H](O)[C@H](N)[C@H]1O [Amikacin],MIC breakpoints R>,[1],> 8 µg/mL
same,MIC breakpoints S≤,[1],≤ 8 µg/mL
CC1(C)S[C@@H]2[C@H](NC(=O)[C@H](N)c3ccc(O)cc3)C(=O)N2[C@H]1C(=O)O [Amoxicillin],MIC breakpoints R>,[2],> 8 µg/mL
same,MIC breakpoints S≤,[2],≤ 4 µg/mL
CC1(C)S[C@@H]2[C@H](NC(=O)[C@H](N)c3ccccc3)C(=O)N2[C@H]1C(=O)O [Ampicillin],MIC breakpoints R>,[2],> 8 µg/mL
same,MIC breakpoints S≤,[2],≤ 4 µg/mL
CC1=C(C(=O)O)N2C(=O)[C@@H](NC(=O)[C@H](N)c3ccc(O)cc3)[C@H]2SC1 [Cefadroxil],MIC breakpoints R>,[3],> 16 µg/mL
same,MIC breakpoints S≤,[3],≤ 16 µg/mL
CC1=C(C(=O)O)N2C(=O)[C@@H](NC(=O)[C@H](N)c3ccccc3)[C@H]2SC1 [Cefalexin],MIC breakpoints R>,[3],> 16 µg/mL
same,MIC breakpoints S≤,[3],≤ 16 µg/mL
O=C(N[C@H](CO)[C@H](O)c1ccc([N+](=O)[O-])cc1)C(Cl)Cl [Chloramphenicol],MIC breakpoints R>,[1],> 8 µg/mL
same,MIC breakpoints S≤,[1],≤ 8 µg/mL
"C[C@@H]1O[C@@H]1P(=O)(O)O [Fosfomycin iv, Fosfomycin]",MIC breakpoints R>,[3],> 32 µg/mL
same,MIC breakpoints S≤,[3],≤ 32 µg/mL
same,MIC breakpoints R>,[1],> 32 µg/mL
same,MIC breakpoints S≤,[1],≤ 32 µg/mL
O=C1CN(/N=C/c2ccc([N+](=O)[O-])o2)C(=O)N1 [Nitrofurantoin],MIC breakpoints R>,[3],> 64 µg/mL
same,MIC breakpoints S≤,[3],≤ 64 µg/mL
same,MIC breakpoints R>,[1],> 64 µg/mL
same,MIC breakpoints S≤,[1],≤ 64 µg/mL
same,MIC breakpoints R>,[2],> 64 µg/mL
same,MIC breakpoints S≤,[2],≤ 64 µg/mL
O=[N+]([O-])c1ccc(O)c2ncccc12 [Nitroxoline],MIC breakpoints R>,[3],> 16 µg/mL
same,MIC breakpoints S≤,[3],≤ 16 µg/mL
CCN1CCN(C(=O)N[C@@H](C(=O)N[C@@H]2C(=O)N3[C@@H]2SC(C)(C)[C@@H]3C(=O)O)c2ccccc2)C(=O)C1=O [Piperacillin],MIC breakpoints R>,[3],> 8 µg/mL
same,MIC breakpoints S≤,[3],≤ 8 µg/mL
CC1(C)S[C@@H]2[C@H](NC(=O)[C@H](C(=O)O)c3ccsc3)C(=O)N2[C@H]1C(=O)O [Ticarcillin],MIC breakpoints R>,[3],> 16 µg/mL
same,MIC breakpoints S≤,[3],≤ 8 µg/mL
H-VFQFLGRIIHHVGNFVHGFSHVF-OH [Clavanin B],log β CuH2L,[4]; [6],28.72 (3)
same,log β CuH3L,[4]; [6],35.57 (2)
same,log β CuH4L,[4]; [6],41.57 (3)
same,log β CuH-1L,[4]; [6],2.96 (3)
same,log β CuH-2L,[4]; [6],-7.17 (3)
same,log β CuH-3L,[4]; [6],-18.46 (4)
same,log β CuHL,[4]; [6],21.00 (3)
same,log β CuL,[4]; [6],12.37 (3)
same,log β ZnH2L,[4]; [7],25.24 (2)
same,log β ZnH3L,[4]; [7],32.61 (2)
same,log β ZnH4L,[4]; [7],39.23 (7)
same,log β ZnHL,[4]; [7],16.85 (1)
same,log β ZnL,[4]; [7],6.53 (7)
same,log β H2L,[5]; [8],20.21 (2)
same,log β H3L,[5]; [8],28.47 (2)
same,log β H4L,[5]; [8],36.26 (2)
same,log β H5L,[5]; [8],43.35 (2)
same,log β H6L,[5]; [8],48.47 (2)
same,log β HL,[5]; [8],11.17 (1)
VFQFLGRIIHHVGNFVHGFSHVF [Clavanin B],"pKa, line CuH2L",[4],6.86
same,"pKa, line CuH3L",[4],5.99
same,"pKa, line CuH-1L",[4],9.40
same,"pKa, line CuH-2L",[4],10.14
same,"pKa, line CuH-3L",[4],11.28
same,"pKa, line CuHL",[4],7.71
same,"pKa, line CuL",[4],8.64
same,"pKa, line ZnH2L",[4],7.37
same,"pKa, line ZnH3L",[4],6.62
same,"pKa, line ZnHL",[4],8.39
same,"pKa, line ZnL",[4],10.32
same,"pKa, species H2L",[5],9.04
same,"pKa, species H3L",[5],8.26
same,"pKa, species H4L",[5],7.79
same,"pKa, species H5L",[5],7.09
same,"pKa, species H6L",[5],5.12
same,"pKa, species HL",[5],11.17
